Experimental data: patent US20230143604A1, “QW DOSING OF GIP RECEPTOR AGONIST PEPTIDE COMPOUNDS AND USES THEREOF” (TAKEDA PHARMACEUTICAL COMPANY LIMITED, priority 2020, published 2023)
Starred links: 1 amine or outer side, 2 acyl side, 3 side chain; linkers in the order of their positions; H or OH if unused. Non-standard residues stand in square brackets, D forms with d. Residues, ends and D or L forms follow the SMILES beside them. Groups on a side chain read outwards from the residue. *: point of attachment. C18 diacid = O=C(O)CCCCCCCCCCCCCCCCC(=O)*; C17 diacid = O=C(O)CCCCCCCCCCCCCCCC(=O)*; γGlu = O=C(O)[C@H](CCC(=O)[*:2])N[*:1]; NMeY = CN[C@@H](Cc1ccc(O)cc1)C(=O)O; AEEA = NCCOCCOCC(=O)O; Aib = CC(C)(N)C(=O)O

Assay: Solubility in phosphate buffer pH 7.4
Protocol: Solubility of the GIPR peptides may be determined by dissolution in a phosphate buffer followed by quantitation using liquid chromatography, for example, High Performance Liquid Chromatogry (HPLC). An illustrative method is provided. For determination of the solubility of the GIPr agonist peptides, 3 mg of peptides are weighted out in a small glass vial. 100 μL of 200 mM Phosphate buffer pH 7.4 are added and the vial is sonicated/votexed as necessary for a maximum of 1 min. […] If insoluble material is observed in the tube the addition of 100 μL of buffer and mixing is repeated until complete dissolution.
3 mg of peptides are weighted out in a small glass vial. 100 uL of 200 mM Phosphate buffer pH 7.4 are added and the vial is sonicated/votexed as necessary for a maximum of 1 min. […] If insoluble material is observed in the tube the addition of 100 uL of buffer and mixing is repeated until complete dissolution.

[1] = pH 7.4, aqueous buffer, pH 7.4 Phosphate Buffer - Solubility, 200 mM Phosphate buffer pH 7.4
[2] = pH 7.4, solubility in phosphate buffer at pH 7.4, 200 mM phosphate buffer pH 7.4

With `CC[C@H](C)[C@H](NC(=O)[C@H](CO)NC(=O)[C@H](Cc1ccc(O)cc1)NC(=O)[C@H](CC(=O)O)NC(=O)[C@H](CO)NC(=O)[C@@H](NC(=O)[C@H](Cc1ccccc1)NC(=O)[C@@H](NC(=O)CNC(=O)[C@H](CCC(=O)O)NC(=O)C(C)(C)NC(=O)[C@H](Cc1ccc(O)cc1)NC)[C@@H](C)O)[C@@H](C)CC)C(=O)N[C@@H](C)C(=O)N[C@@H](CC(C)C)C(=O)N[C@@H](CC(=O)O)C(=O)N[C@@H](CCCNC(=N)N)C(=O)NC(C)(C)C(=O)N[C@@H](CCCCNC(=O)COCCOCCNC(=O)COCCOCCNC(=O)CC[C@H](NC(=O)CCCCCCCCCCCCCCCC(=O)O)C(=O)O)C(=O)N[C@@H](CCC(N)=O)C(=O)NC(C)(C)C(=O)N[C@@H](CC(=O)O)C(=O)N[C@@H](Cc1ccccc1)C(=O)N[C@H](C(=O)N[C@@H](CC(N)=O)C(=O)N[C@@H](Cc1c[nH]c2ccccc12)C(=O)N[C@@H](CC(C)C)C(=O)N[C@@H](CC(C)C)C(=O)N[C@@H](C)C(=O)N[C@@H](CCC(N)=O)C(=O)N[C@@H](CCCNC(=N)N)C(=O)N1CCC[C@H]1C(=O)N[C@@H](CO)C(=O)N[C@@H](CO)C(=O)NCC(=O)N[C@@H](C)C(=O)N1CCC[C@H]1C(=O)N1CCC[C@H]1C(=O)N1CCC[C@H]1C(=O)N[C@@H](CO)C(N)=O)C(C)C` [Compound 25] (H-[NMeY][Aib]EGTFISDYSIALDR[Aib]K([AEEA-AEEA-γGlu-C17 diacid])Q[Aib]DFVNWLLAQRPSSGAPPPS-NH2) the solubility [1] was no less than 30 mg/mL and the solubility [2] was no less than 15 mg/mL.
Molecule `CC[C@H](C)[C@H](NC(=O)[C@H](Cc1ccccc1)NC(=O)[C@@H](NC(=O)CNC(=O)[C@H](CCC(=O)O)NC(=O)C(C)(C)NC(=O)[C@H](Cc1ccc(O)cc1)NC)[C@@H](C)O)C(=O)N[C@@H](CO)C(=O)N[C@@H](CC(=O)O)C(=O)N[C@@H](Cc1ccc(O)cc1)C(=O)N[C@@H](CO)C(=O)N[C@H](C(=O)NC(C)(C)C(=O)N[C@@H](CC(C)C)C(=O)N[C@@H](CC(=O)O)C(=O)N[C@@H](CCCNC(=N)N)C(=O)N[C@@H](CCCCNC(=O)COCCOCCNC(=O)COCCOCCNC(=O)CC[C@H](NC(=O)CC[C@H](NC(=O)CCCCCCCCCCCCCCCCC(=O)O)C(=O)O)C(=O)O)C(=O)N[C@@H](C)C(=O)N[C@@H](CCC(N)=O)C(=O)NC(C)(C)C(=O)N[C@@H](CC(N)=O)C(=O)N[C@@H](Cc1ccccc1)C(=O)N[C@H](C(=O)N[C@@H](CC(N)=O)C(=O)N[C@@H](Cc1c[nH]c2ccccc12)C(=O)N[C@@H](CC(C)C)C(=O)N[C@@H](CC(C)C)C(=O)N[C@@H](C)C(=O)N[C@@H](CCC(N)=O)C(=O)N[C@@H](CCCNC(=N)N)C(=O)N1CCC[C@H]1C(=O)N[C@@H](CO)C(=O)N[C@@H](CO)C(=O)NCC(=O)N[C@@H](C)C(=O)N1CCC[C@H]1C(=O)N1CCC[C@H]1C(=O)N1CCC[C@H]1C(=O)N[C@@H](CO)C(N)=O)C(C)C)[C@@H](C)CC` [Compound 26] (H-[NMeY][Aib]EGTFISDYSI[Aib]LDRK([AEEA-AEEA-γGlu-γGlu-C18 diacid])AQ[Aib]NFVNWLLAQRPSSGAPPPS-NH2) has a solubility [1] of no less than 30 mg/mL and a solubility [2] of no less than 15 mg/mL.
Work on `CC[C@H](C)[C@H](NC(=O)[C@H](Cc1ccccc1)NC(=O)[C@@H](NC(=O)CNC(=O)[C@H](CCC(=O)O)NC(=O)C(C)(C)NC(=O)[C@H](Cc1ccc(O)cc1)NC)[C@@H](C)O)C(=O)N[C@@H](CO)C(=O)N[C@@H](CC(=O)O)C(=O)N[C@@H](Cc1ccc(O)cc1)C(=O)N[C@@H](CO)C(=O)N[C@H](C(=O)NC(C)(C)C(=O)N[C@@H](CCCCNC(=O)COCCOCCNC(=O)COCCOCCNC(=O)CC[C@H](NC(=O)CC[C@H](NC(=O)CCCCCCCCCCCCCCCCC(=O)O)C(=O)O)C(=O)O)C(=O)N[C@@H](CC(=O)O)C(=O)N[C@@H](CCCNC(=N)N)C(=O)NC(C)(C)C(=O)N[C@@H](C)C(=O)N[C@@H](CCC(N)=O)C(=O)NC(C)(C)C(=O)N[C@@H](CC(N)=O)C(=O)N[C@@H](Cc1ccccc1)C(=O)N[C@H](C(=O)N[C@@H](CC(N)=O)C(=O)N[C@@H](Cc1c[nH]c2ccccc12)C(=O)N[C@@H](CC(C)C)C(=O)N[C@@H](CC(C)C)C(=O)N[C@@H](C)C(=O)N[C@@H](CCC(N)=O)C(=O)N[C@@H](CCCNC(=N)N)C(=O)N1CCC[C@H]1C(=O)N[C@@H](CO)C(=O)N[C@@H](CO)C(=O)NCC(=O)N[C@@H](C)C(=O)N1CCC[C@H]1C(=O)N1CCC[C@H]1C(=O)N1CCC[C@H]1C(=O)N[C@@H](CO)C(N)=O)C(C)C)[C@@H](C)CC` [Compound 28] (H-[NMeY][Aib]EGTFISDYSI[Aib]K([AEEA-AEEA-γGlu-γGlu-C18 diacid])DR[Aib]AQ[Aib]NFVNWLLAQRPSSGAPPPS-NH2) yielded a solubility [1] of no less than 30 mg/mL and a solubility [2] of no less than 15 mg/mL.
For `CC[C@H](C)[C@H](NC(=O)[C@H](Cc1ccccc1)NC(=O)[C@@H](NC(=O)CNC(=O)[C@H](CCC(=O)O)NC(=O)C(C)(C)NC(=O)[C@H](Cc1ccc(O)cc1)NC)[C@@H](C)O)C(=O)N[C@@H](CO)C(=O)N[C@@H](CC(=O)O)C(=O)N[C@@H](Cc1ccc(O)cc1)C(=O)N[C@@H](CO)C(=O)N[C@H](C(=O)NC(C)(C)C(=O)N[C@@H](CCCCNC(=O)COCCOCCNC(=O)COCCOCCNC(=O)CC[C@H](NC(=O)CC[C@H](NC(=O)CCCCCCCCCCCCCCCC(=O)O)C(=O)O)C(=O)O)C(=O)N[C@@H](CC(=O)O)C(=O)N[C@@H](CCCNC(=N)N)C(=O)NC(C)(C)C(=O)N[C@@H](C)C(=O)N[C@@H](CCC(N)=O)C(=O)NC(C)(C)C(=O)N[C@@H](CC(N)=O)C(=O)N[C@@H](Cc1ccccc1)C(=O)N[C@H](C(=O)N[C@@H](CC(N)=O)C(=O)N[C@@H](Cc1c[nH]c2ccccc12)C(=O)N[C@@H](CC(C)C)C(=O)N[C@@H](CC(C)C)C(=O)N[C@@H](C)C(=O)N[C@@H](CCC(N)=O)C(=O)N[C@@H](CO)C(=O)N1CCC[C@H]1C(=O)N[C@@H](CO)C(=O)N[C@@H](CO)C(=O)NCC(=O)N[C@@H](C)C(=O)N1CCC[C@H]1C(=O)N1CCC[C@H]1C(=O)N1CCC[C@H]1C(=O)N[C@@H](CO)C(N)=O)C(C)C)[C@@H](C)CC` [Compound 29] (H-[NMeY][Aib]EGTFISDYSI[Aib]K([AEEA-AEEA-γGlu-γGlu-C17 diacid])DR[Aib]AQ[Aib]NFVNWLLAQSPSSGAPPPS-NH2), the solubility [1] was no less than 30 mg/mL and the solubility [2] was no less than 15 mg/mL.
With `CC[C@H](C)[C@H](NC(=O)[C@H](CO)NC(=O)[C@H](Cc1ccc(O)cc1)NC(=O)[C@H](CC(=O)O)NC(=O)[C@H](CO)NC(=O)[C@@H](NC(=O)[C@H](Cc1ccccc1)NC(=O)[C@@H](NC(=O)CNC(=O)[C@H](CCC(=O)O)NC(=O)C(C)(C)NC(=O)[C@H](Cc1ccc(O)cc1)NC)[C@@H](C)O)[C@@H](C)CC)C(=O)N[C@@H](C)C(=O)N[C@@H](CC(C)C)C(=O)N[C@@H](CC(=O)O)C(=O)N[C@@H](CCCNC(=N)N)C(=O)NC(C)(C)C(=O)N[C@@H](C)C(=O)N[C@@H](CCC(N)=O)C(=O)NC(C)(C)C(=O)N[C@@H](CCCCNC(=O)COCCOCCNC(=O)COCCOCCNC(=O)CC[C@H](NC(=O)CC[C@H](NC(=O)CCCCCCCCCCCCCCCC(=O)O)C(=O)O)C(=O)O)C(=O)N[C@@H](Cc1ccccc1)C(=O)N[C@H](C(=O)N[C@@H](CC(N)=O)C(=O)N[C@@H](Cc1c[nH]c2ccccc12)C(=O)N[C@@H](CC(C)C)C(=O)N[C@@H](CC(C)C)C(=O)N[C@@H](C)C(=O)N[C@@H](CCC(N)=O)C(=O)N[C@@H](CCCNC(=N)N)C(=O)NCC(=O)NCC(=O)NCC(=O)NCC(=O)N[C@@H](CO)C(N)=O)C(C)C` [Compound 30] (H-[NMeY][Aib]EGTFISDYSIALDR[Aib]AQ[Aib]K([AEEA-AEEA-γGlu-γGlu-C17 diacid])FVNWLLAQRGGGGS-NH2) the solubility (pH 7.4) was no less than 15 mg/mL and the solubility (pH 7.4, aqueous buffer) was no less than 30 mg/mL.
For `CC[C@H](C)[C@H](NC(=O)[C@H](CO)NC(=O)[C@H](Cc1ccc(O)cc1)NC(=O)[C@H](CC(=O)O)NC(=O)[C@H](CO)NC(=O)[C@@H](NC(=O)[C@H](Cc1ccccc1)NC(=O)[C@@H](NC(=O)CNC(=O)[C@H](CCC(=O)O)NC(=O)C(C)(C)NC(=O)[C@H](Cc1ccc(O)cc1)NC)[C@@H](C)O)[C@@H](C)CC)C(=O)N[C@@H](C)C(=O)N[C@@H](CC(C)C)C(=O)N[C@@H](CC(=O)O)C(=O)N[C@@H](CCCNC(=N)N)C(=O)NC(C)(C)C(=O)N[C@@H](CCCCNC(=O)COCCOCCNC(=O)COCCOCCNC(=O)CC[C@H](NC(=O)CC[C@H](NC(=O)CCCCCCCCCCCCCCCC(=O)O)C(=O)O)C(=O)O)C(=O)N[C@@H](CCC(N)=O)C(=O)NC(C)(C)C(=O)N[C@@H](CC(N)=O)C(=O)N[C@@H](Cc1ccccc1)C(=O)N[C@H](C(=O)N[C@@H](CC(N)=O)C(=O)N[C@@H](Cc1c[nH]c2ccccc12)C(=O)N[C@@H](CC(C)C)C(=O)N[C@@H](CC(C)C)C(=O)N[C@@H](C)C(=O)N[C@@H](CCC(N)=O)C(=O)N[C@@H](CO)C(=O)NCC(=O)NCC(=O)NCC(=O)NCC(=O)N[C@@H](CO)C(N)=O)C(C)C` [Compound 31] (H-[NMeY][Aib]EGTFISDYSIALDR[Aib]K([AEEA-AEEA-γGlu-γGlu-C17 diacid])Q[Aib]NFVNWLLAQSGGGGS-NH2), the solubility (pH 7.4) was no less than 15 mg/mL and the solubility (pH 7.4, aqueous buffer) was no less than 30 mg/mL.
